Experimental data reported in patent US20260184710A1, “CASITAS B-LINEAGE LYMPHOMA PROTOONCOGENE B (CBL-B) DEGRADING COMPOUNDS AND ASSOCIATED METHODS OF USE” (Arvinas Operations, Inc., priority 2022, published 2026).

Key:
Cbl-b [1] = target: T1, Cbl-b (Homo sapiens, UniProt Q13191); assay: Cbl-b Degradation Method A (FACS, anti-Cbl-b antibody staining); assay type: cell-based; conditions: Cbl-b-HiBit KI Jurkat Cells, incubated at least 20 hours; for DC50: half maximal degradation, read-out: Cbl-b Degredation Method A IC50; for Dmax: Jurkat, maximum degradation observed, read-out: Cbl-b Degredation Method A Dmax (%)
T1 construct: Cbl-b-HiBit KI Jurkat Cells were purchased from Promega; host or cells: Cbl-b-HiBiT knock-in Jurkat cells
In short: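 Cbl-b-HiBit KI Jurkat cells treated with compound for at least 20 h at 37 °C, then fixed, permeabilized and stained with anti-Cbl-b antibody plus anti-rabbit AF488 secondary. Cbl-b levels read by FACS; DC50 and Dmax (percent of control) derived.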

Cbl-b [2] = target: T1, Cbl-b; assay: Cbl-b Degradation Method B (Nano-Glo HiBiT lytic detection); assay type: cell-based; conditions: Cbl-b-HiBit KI Jurkat Cells, incubated at least 6-24 hours; for DC50: half maximal degradation, read-out: Cbl-b Degredation Method B IC50; for Dmax: maximum degradation observed, read-out: Cbl-b Degredation Method B Dmax (%)
In short: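 Cbl-b-HiBiT knock-in Jurkat cells (20,000/well) were treated after ~24 h plating with an 11-point 1:3 series for 6-24 h at 37° C. Remaining Cbl-b measured by Nano-Glo HiBiT lytic luminescence. DC50 and Dmax expressed as % of control.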

T1 sequence (Q13191 whole entry): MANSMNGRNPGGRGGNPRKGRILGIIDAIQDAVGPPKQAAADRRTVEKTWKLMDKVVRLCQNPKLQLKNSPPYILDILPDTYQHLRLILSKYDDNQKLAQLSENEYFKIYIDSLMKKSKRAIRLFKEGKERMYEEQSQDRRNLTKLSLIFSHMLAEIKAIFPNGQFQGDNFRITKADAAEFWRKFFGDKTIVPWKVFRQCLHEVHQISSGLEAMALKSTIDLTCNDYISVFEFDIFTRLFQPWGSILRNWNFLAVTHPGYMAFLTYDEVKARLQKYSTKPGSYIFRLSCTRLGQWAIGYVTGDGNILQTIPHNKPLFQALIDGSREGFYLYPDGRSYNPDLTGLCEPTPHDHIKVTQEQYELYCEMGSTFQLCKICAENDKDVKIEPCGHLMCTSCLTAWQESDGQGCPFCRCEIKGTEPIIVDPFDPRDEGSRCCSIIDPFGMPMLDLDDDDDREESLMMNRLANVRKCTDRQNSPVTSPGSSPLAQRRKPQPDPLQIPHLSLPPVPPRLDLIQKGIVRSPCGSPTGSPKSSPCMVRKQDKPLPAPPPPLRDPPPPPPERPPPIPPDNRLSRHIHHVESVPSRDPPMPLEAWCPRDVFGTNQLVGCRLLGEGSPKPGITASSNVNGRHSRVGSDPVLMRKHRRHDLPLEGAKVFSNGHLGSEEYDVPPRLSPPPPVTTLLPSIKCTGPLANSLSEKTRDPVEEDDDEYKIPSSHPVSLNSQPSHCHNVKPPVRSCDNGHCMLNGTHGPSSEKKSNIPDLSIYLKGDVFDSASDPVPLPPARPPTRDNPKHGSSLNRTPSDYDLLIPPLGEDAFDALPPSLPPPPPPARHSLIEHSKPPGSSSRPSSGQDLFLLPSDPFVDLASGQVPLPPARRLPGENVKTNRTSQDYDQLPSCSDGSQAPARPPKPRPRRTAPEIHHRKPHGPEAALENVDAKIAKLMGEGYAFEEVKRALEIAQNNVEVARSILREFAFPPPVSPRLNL

| SMILES | DC50 (Cbl-b [1]) [nM] | Dmax (Cbl-b [1]) [%] | DC50 (Cbl-b [2]) [nM] | Dmax (Cbl-b [2]) [%] |
| --- | --- | --- | --- | --- |
| CC1CN(C[C@H]2CC[C@H](OC3CCN(c4ccc5c(c4F)CN(C4CCC(=O)NC4=O)C5=O)CC3)CC2)CCN1Cc1cc2c(c(C(F)(F)F)c1)CN(c1cccc([C@]3(Cc4nncn4C)C[C@@H](C#N)C3)c1)C2=O (stereo partly shown) [Example 204, (1r,3r)-3-(3-{6-[(2-methyl-4-{[(1r,4r)-4-({1-[2-(2,6-dioxopiperidin-3-yl)-4-fluoro-1-oxo-2,3-dihydro-1H-isoindol-5-yl]piperidin-4-yl}oxy)cyclohexyl]methyl}piperazin-1-yl)methyl]-1-oxo-4-(trifluoromethyl)-2,3-dihydro-1H-isoindol-2-yl}phenyl)-3-[(4-methyl-4H-1,2,4-triazol-3-yl)methyl]cyclobutane-1-carbonitrile] | < 5 | > 70 | < 5 | 35 to 70 |
| CC1CN(C[C@H]2CC[C@H](OC3CCN(c4ccc5c(n4)C(C)N(C4CCC(=O)NC4=O)C5=O)CC3)CC2)CCN1Cc1cc2c(c(C(F)(F)F)c1)CN(c1cccc([C@]3(Cc4nncn4C)C[C@@H](C#N)C3)c1)C2=O (stereo partly shown) [Example 208, (1r,3r)-3-(3-{6-[(2-methyl-4-{[(1r,4r)-4-({1-[6-(2,6-dioxopiperidin-3-yl)-7-methyl-5-oxo-5H,6H,7H-pyrrolo[3,4-b]pyridin-2-yl]piperidin-4-yl}oxy)cyclohexyl]methyl}piperazin-1-yl)methyl]-1-oxo-4-(trifluoromethyl)-2,3-dihydro-1H-isoindol-2-yl}phenyl)-3-[(4-methyl-4H-1,2,4-triazol-3-yl)methyl]cyclobutane-1-carbonitrile] | 5 to 50 | 35 to 70 | < 5 | 35 to 70 |
| CC1CN(C[C@H]2CC[C@H](OC3CCN(c4ccc5c(n4)C(C)N(C4CCC(=O)NC4=O)C5=O)CC3)CC2)CCN1Cc1cc2c(c(C(F)(F)F)c1)CN(c1cccc(C3(Cc4nncn4C)CCC3)c1)C2=O (stereo partly shown) [Example 209, 3-[7-methyl-5-oxo-2-(4-{[(1r,4r)-4-[(3-methyl-4-{[2-(3-{1-[(4-methyl-4H-1,2,4-triazol-3-yl)methyl]cyclobutyl}phenyl)-3-oxo-7-(trifluoromethyl)-2,3-dihydro-1H-isoindol-5-yl]methyl}piperazin-1-yl)methyl]cyclohexyl]oxy}piperidin-1-yl)-5H,6H,7H-pyrrolo[3,4-b]pyridin-6-yl]piperidine-2,6-dione] | 5 to 50 | 35 to 70 | < 5 | 35 to 70 |
| CC1c2nc(N3CCC(O[C@H]4CC[C@H](CN5CCN(Cc6cc7c(c(C(F)(F)F)c6)CN(c6cccc(C8(Cc9nncn9C9CC9)COC8)c6)C7=O)CC5)CC4)CC3)ccc2C(=O)N1C1CCC(=O)NC1=O (stereo partly shown) [Example 211, 3-[7-methyl-5-oxo-2-(4-{[(1r,4r)-4-[(4-{[2-(3-{3-[(4-cyclopropyl-4H-1,2,4-triazol-3-yl)methyl]oxetan-3-yl}phenyl)-3-oxo-7-(trifluoromethyl)-2,3-dihydro-1H-isoindol-5-yl]methyl}piperazin-1-yl)methyl]cyclohexyl]oxy}piperidin-1-yl)-5H,6H,7H-pyrrolo[3,4-b]pyridin-6-yl]piperidine-2,6-dione] | < 5 | < 35 | > 500 |  |
| CC1CN(C[C@H]2CC[C@H](OC3CCN(c4ccc5c(n4)C(C)N(C4CCC(=O)NC4=O)C5=O)CC3)CC2)CCN1Cc1cc2c(c(C(F)(F)F)c1)CN(c1cccc(C3(Cc4nncn4C)CC3)c1)C2=O (stereo partly shown) [Example 212, 3-[7-methyl-5-oxo-2-(4-{[(1r,4r)-4-[(3-methyl-4-{[2-(3-{1-[(4-methyl-4H-1,2,4-triazol-3-yl)methyl]cyclopropyl}phenyl)-3-oxo-7-(trifluoromethyl)-2,3-dihydro-1H-isoindol-5-yl]methyl}piperazin-1-yl)methyl]cyclohexyl]oxy}piperidin-1-yl)-5H,6H,7H-pyrrolo[3,4-b]pyridin-6-yl]piperidine-2,6-dione] | 5 to 50 | 35 to 70 | < 5 | 35 to 70 |
